No end group written: not given here.

These results are taken from patent publication US20210322508A1, “PEPTIDES AND COMPOSITIONS FOR TARGETED TREATMENT AND IMAGING” (SIGNABLOK, INC., priority 2018, published 2021).

A short description of data set [1]: tolerability in healthy mice (body weight). The settings on record: healthy C57BL/6 mice, average weights. It is filed as in vivo. As for the experimental part: As described herein, healthy C57BL/6 mice were intraperitoneally (i.p.) administered daily for 7 consecutive days with GF9 at indicated doses Mouse body weight (BW) was measured daily.
A short description of data set [2]: Mouse tolerability studies. It is filed as in vivo. Particulars: female, C57BL/6, mouse, in vivo, ip, 400 mg/kg; free form, healthy mice. As for the experimental part:
Naïve, female C57BL/6 mice at 8 to 10 weeks of age (18 to 21 g) from the Jackson Laboratory were used. […] Clinical observations and body weights were made twice daily.
Naïve, female C57BL/6 mice at 8 to 10 weeks of age (18 to 21 g) from the Jackson Laboratory were used. Animals were randomly grouped (5 mice per group) and i.p. injected with 400 mg/kg G-HV21, G-KV21 or G-TE21. Clinical observations and body weights were made twice daily.

In data set [3] the test system is LPS-stimulated J774A.1 macrophages (TNF-alpha, IL-6, IL-1beta). Kind of data set: In vitro cytokine release by LPS-stimulated macrophages. It is filed as cell-based, mouse. Particulars: 10 ng/ml after pre-incubation with HDL; LPS 1 μg/ml, 24 h. As for the experimental part: (§1) The BALB/c murine macrophage cell line J774A.1 (ATCC TIB-67) were obtained from the American Type Culture Collection (ATCC, Manassas, Va.). Macrophages were cultured in 48-well plates (Corning, Cambridge, Mass.) for 24 h at 37° C. in the presence of LPS (1 μg/ml, Escherichia coli 055:B5, Sigma) in combination with 10 ng/ml peptides either pre-incubated or not with HDL. Cell-free supernatants were harvested and stored at −20° C. for later cytokine quantification. TNF-alpha, IL-6, and IL-1beta were assayed using commercial ELISA kits (Pierce Biotechnology, Thermo Scientific, Rockford, Ill.) according to the recommendations of the manufacturer. Results were represented as the mean±S.D. of three independent experiments. Statistical significances in in vitro macrophage uptake assay were determined by two-tailed Student's t test.
as §1, with “Macrophages were cultured in 48-well plates (Corning, Cambridge, Mass.) for 24 h at 37° C. in the presence of LPS (1 μg/ml, Escherichia coli 055:B5, Sigma) in combination with 10 ng/ml peptides either pre-incubated or not with HDL.” left out

The next data set has as its system J774A.1 macrophages. Kind of data set: In vitro macrophage endocytosis of fluorescent peptides with or without HDL. Particulars: in the presence or absence of HDL. The class given is cell-based, mouse. On the procedure: The BALB/c murine macrophage cell line J774A.1 (ATCC TIB-67) were obtained from the American Type Culture Collection (ATCC, Manassas, Va.). The macrophage cells were cultured at 37° C. with 5% CO2 in Dulbecco's modified Eagle's medium (DMEM) (Cellgro, Mediatech Inc, Manassas, Va.) with 2 mM glutamine, 100 U/ml penicillin, 0.1 mg/ml streptomycin, and 10% fetal bovine serum (FBS) (Cellgro, Mediatech Inc, Manassas, Va.) and grown to approximately 90% of confluence in 6-well tissue culture plates (Corning, Tewksbury, Mass.). Cells were incubated for varied time periods from 4 to 24 h at 37° C. with fluorescently labeled peptides (pre-incubated with 1 mg/ml HDL) at a concentration of 4 μM rhodamine B (rho-B). After incubation, cells were washed twice with PBS and lysed using Promega passive lysis buffer (Promega, Madison, Wis.). The rho B fluorescence was measured in the lysates with a 540 nm excitation and a 590 nm emission filters using the Gemini EM fluorescence microplate reader (Molecular Devices, Sunnyvale, Calif.). The protein concentration in the lysates was determined using the Bradford reagent (Bio-Rad, Richmond, Calif.) and the SpectraMax 190 microplate reader (Molecular Devices, Sunnyvale, Calif.).
In one embodiment, after reaching target confluency, cells were incubated for 1 h in medium with or without fucoidan (400 μg/mL), BLT-1 (10 μM) or cytochalasin D (40 μM), Cells were subsequently incubated for 4 h and 22 h at 37° C. in medium containing 2 μM of rho B-labeled peptides G-KV21 and G-HV21 (as calculated for rho B) that were pre-incubated with 1 mg/ml HDL. After incubation, cells were washed twice with PBS and lysed using Promega passive lysis buffer. The rho B fluorescence and protein concentration were measured in the lysates as described above.

The conditions of data set [4]: in vivo; cited from earlier work.
In data set [5] the target is T1, TREM-1 (triggering receptor expressed on myeloid cells-1) on murine J774A.1 macrophages (mouse, UniProt Q9JKE2 21-230).
T1 construct: whole, on cells; the cells are murine
T1 sequence (looked up): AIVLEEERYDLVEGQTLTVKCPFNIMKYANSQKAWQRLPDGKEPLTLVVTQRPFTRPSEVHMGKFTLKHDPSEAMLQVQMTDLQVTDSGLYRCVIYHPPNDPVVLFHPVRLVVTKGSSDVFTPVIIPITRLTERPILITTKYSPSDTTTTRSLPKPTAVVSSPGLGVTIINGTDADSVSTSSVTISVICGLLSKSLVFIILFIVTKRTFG
Kind of data set: confocal immunofluorescence on macrophages; colocalisation only, no direct binding assay. On the procedure: Immunofluorescence analysis of TREM-1 and TREM-1/TRIOPEP in the cell membrane was performed using the standard, well-known in the art methods as described in Shen and Sigalov J Cell Mol Med 2017, 21:2524-2534, and Rojas et al. 2018, herein incorporate by reference.
BALB/c murine macrophage J774A.1 cells were grown at 37° C. in six-well tissue culture plates containing glass coverslips. After reaching target confluency of approximately 50%, cells were incubated for 6 h at 37° C. with Dylight 488-labeled GF9 or TREM-1/TRIOPEP-sSLP that contained Dylight 488-labeled GE31. TREM-1 staining was performed was performed using an Alexa 647-labeled rat anti-mouse TREM-1 antibody (Bio-Rad, Hercules, Calif.). ProLong Gold Antifade DAPI (4′,6′-diamidino-2-phenylindole) mounting medium was used to mount coverslips, and the slides were photographed using an Olympus BX60 fluorescence microscope. Confocal imaging was performed with a Leica TCS SP5 II laser scanning confocal microscope.

By MTD is commonly meant the highest dose tested that stayed within the study's limit of toxicity. Consider `CC(C)C[C@H](NC(=O)[C@H](Cc1ccccc1)NC(=O)CN)C(=O)N[C@@H](CO)C(=O)N[C@@H](CCCCN)C(=O)N[C@@H](CO)C(=O)N[C@@H](CC(C)C)C(=O)N[C@H](C(=O)N[C@@H](Cc1ccccc1)C(=O)N[C@H](C(=O)N[C@@H](CCCCN)C(=O)N1CCC[C@H]1C(=O)N[C@@H](CCC(=O)O)C(=O)N[C@@H](CO)C(=O)N[C@@H](CCC(=O)O)C(=O)N[C@@H](CCCNC(=N)N)C(=O)N[C@@H](CC[S+](C)[O-])C(=O)N1CCC[C@H]1C(=O)N[C@@H](CS)C(=O)N[C@H](C(=O)N[C@@H](CCC(=O)O)C(=O)O)[C@@H](C)O)[C@@H](C)O)C(C)C` (stereo partly shown) [G-TE21, reference compound], for which the “toxicity in healthy mice” value in data set [1] is “No toxicity was observed”. Besides, in data set [2], the MTD is at least 400 mg/kg. For the same molecule, the “production of cytokines by LPS-stimulated macrophages” value in data set [3] was “does not affect on cytokine release by LPS-stimulated macrophages”. Besides, the “macrophage endocytosis, effect of sulfoxidized methionine residue” value in the data set on J774A.1 macrophages was “does not promote macrophage endocytosis neither in the presence or absence of HDL”. In the data set with mouse lipoproteins, the “behaviour on ultracentrifugation of whole mouse serum” value was “sedimentate with serum proteins”.
For LQEEDAGEYGCM [LR12], the safety in humans entry in data set [4] was “safe”.

B1: TREM-1 inhibitory peptide GF9 (GFLSKSLVF, human TREM-1 213-221) (peptide)
peptide: GFLSKSLVF
modifications: not fully specified
notes: also called TREM-1 modulatory peptide GF9
In the case of B1, in data set [5], the binding result was “binds”.
